Tests used:
[1] = test system: acetic acid induced bladder hypermotility (frequency of bladder contraction reflexes); assay: Epidural infusion of bupivacaine in rat model of bladder pain, intravesical acetic acid infusion; format: in vivo; details: epidural infusion 25 μg/day
Experimental: (§1) FIG. 6 is a graphic representation of epidural infusion of bupivacaine in rats treated with an intravesical infusion of acetic acid as described in Example 4. Baseline bladder activity was measured before epidural drug treatment. The columns and error bars represent the mean and SEM values of 10 rats per group. Asterisks indicate statistically significant dose effects compared to baseline as determined by post-hoc Dunnett Multiple Comparison Test.
(§2) An animal model that has been used frequently to study pelvic pain conditions is a rat model of bladder pain. In this model, a female rat was lightly anesthetized with isoflurane and a transurethral catheter was placed into the bladder. The catheter was connected to a pressure transducer so that the pressure within the bladder could be continuously monitored and recorded over time. Fluid was continuously infused into the bladder using a syringe pump at a rate of 0.1 mL/min to cause the bladder to contract repeatedly each time it became full. This is referred to as a volume-evoked micturition reflex or contraction. […]
In order to evaluate the effects of epidurally administered analgesics on normal and painful bladder activity (frequency of reflex bladder contractions), test drugs were continuously administered via an epidural catheter with the tip placed in the mid-lumbar epidural space. […] In the experiments depicted in FIGS. 5 and 6, the baseline bladder activity was measured before implanting the epidural infusion system, the infusion system was implanted on day 0 and cystometrograms were recorded on three consecutive days during which bupivacaine (25 μg/day) was infused into the lumbar epidural space.
Bupivacaine at 25 μg/day reduced acetic acid induced bladder hypermotility by approximately 3 fold on days 2 and 3. The frequency of bladder contraction observed during acetic acid infusion and epidural bupivacaine administration was similar to the baseline bladder activity measured during saline infusion (0.206±0.046 day 3 acetic acid and epidural bupivacaine vs 0.295±0.035 baseline saline).

[2] = test system: normal bladder activity (frequency of reflex bladder contractions); assay: Epidural infusion of bupivacaine in rats, intravesical saline infusion (normal bladder activity, cystometrogram); format: in vivo, rat; details: epidural infusion 25 μg/day, saline infusion into bladder
Experimental: as §1, with “5” for “6”, “saline.” for “acetic acid as described in Example 4.”, “treatment as described in Example 4.” for “treatment.”
as §2, with “contraction. A repeated series of bladder contractions (pressure spikes) over time was collected using this method. To mimic normal bladder activity, 0.9% saline was infused into the bladder; to mimic painful bladder activity, a dilute solution of acetic acid (0.5%) was infused into the bladder.” for “contraction.”

Question: What does the source list for `CCCCN1CCCCC1C(=O)Nc1c(C)cccc1C` (centres unmarked) [bupivacaine, 1-butyl-N-(2,6-dimethylphenyl)piperidine-2-carboxamide]?
Answer: frequency of bladder contraction reflexes vs baseline ([1]; 0.5% acetic acid infusion into bladder, all three days): significantly reduced; frequency of bladder contraction ([1]; acetic acid infusion, day 3, mean ± SEM): 0.206±0.046 reflexes per min; reduction of acetic acid induced bladder hypermotility ([1]; days 2 and 3): approximately 3 fold; effects on normal bladder activity measured during saline infusion ([2]; day 1, vs baseline): minimal effects; contraction rate relative to the baseline reflex contraction rate ([2]; days two and three): statistically significant reductions

Source: patent US8956642B2, “Bupivacaine formulation in a polyorthoester carrier” (Medtronic, Inc., priority 2008, dated 2015)
